Measurements published in PubChem BioAssay AID1918998 (Molecular Pharmacology Branch, DTP, NCI, 2023).

Test system: 521955-158-R2-J5-PDC complex spheroid growth
Experiment: Anticancer human tumor 521955-158-R2-J5-PDC patient-derived pancreatic carcinoma cell line growth inhibition [AhR]
Conditions: for IC50: curve of first compound; for viability, T/C: stronger effect = lower value
Source text: Multicellular complex tumor spheroid response to aryl hydrocarbon receptor antagonists in combination with a variety of drugs and investigational agents in selected tumor cell lines
The current study was undertaken to assess response to aryl hydrocarbon receptor antagonists in combination with standard-of-care drugs and investigational agents in solid tumor complex spheroid models. Complex spheroids include a stromal component modeled by human endothelial cells (HUVEC) and fibroblasts modeled by human mesenchymal stem cells (MSCs). The concentration ranges selected for each drug and investigational agent were based upon clinically achievable concentrations if the clinical Cmax of the agent was known.
Compounds. The drugs and investigational agents: BAY 2416964 (NSC825713), GNF351 (NSC835774), CH-223191 (NSC835775), CPI-455 (NSC825282), aza-TdCyd (NSC777586), decitabine (NSC127716), belinostat (NSC758774), entinostat (NSC756642), pevonedistat (NSC761192), tazemetostat (NSC777109), talazoparib (NSC765396), olaparib (NSC753686), selinexor (NSC780203), nedisertib (M3814, NSC802822), bortezomib (NSC756655), venetoclax (NSC766270), doxorubicin (NSC123127), elimusertib (BAY189344, NSC800525), ceralasertib (AZD6738, NSC777638), TAK-243 (NSC785004), alisertib (NSC759677), etoposide (NSC141540), topotecan (NSC609699), eribulin (NSC707389), gemcitabine (NSC613327), carboplatin (NSC241240), cisplatin (NSC119875), and SN-38 (NSC673596) were obtained from the National Cancer Institute (NCI) Developmental Therapeutics Program Chemical Repository (32). The FDA-approved anticancer drug set is available from the Developmental Therapeutics Program at https://dtp.cancer.gov/organization/dscb/obtaining/available plates.htm. […] The stock solutions were prepared in dimethyl sulfoxide (DMSO, Sigma-Aldrich, St. Louis, MO, cat. D2650), except for the platinum compounds which were prepared in saline (Quality Biological, Gaithersburg, MD, cat. 114-055-101), at 800-fold the tested concentration and stored at -70 degrees C prior to their use. All drugs and investigational agents were tested over a range starting from a high concentration at or near the clinical Cmax and decreasing in half-log increments. If the clinical Cmax for an agent had not been determined, the highest concentration tested was 10 microM (Table 1).
Cell Culture. All cells were maintained in an incubator at 37 degrees C and 5% CO2 with 95% humidity. The PDC lines were cultured according to standard operating procedures established by the NCI PDMR (https://pdmr.cancer.gov). Briefly, all PDCs were thawed and cultured in Matrigel-coated flasks prepared with a working solution of 1X Ham's F-12 nutrient mix, without supplementation (Invitrogen, Waltham, MA, cat. 11765054), 100 U/mL penicillin-streptomycin (Invitrogen, cat. 15140122), and 2.5% Matrigel (Corning Inc., Corning, NY, cat. 354248) for the first three passages. All PDCs were cultured in complete DMEM/F-12 media containing advanced DMEM/F-12 (Invitrogen, cat. 12634028), 4.9% defined fetal bovine serum, heat inactivated (HyClone Laboratories Inc., Logan, UT, cat. SH30070.03HI), 389 ng/mL hydrocortisone (Sigma-Aldrich, cat. H4001), 9.7 ng/mL human EGF recombinant protein (Invitrogen, cat. PHG0313), 23.4 microg/mL adenine (Sigma-Aldrich, cat. A2786), 97.3 U/mL penicillin-streptomycin (Invitrogen, cat. 15140122), 1.9 mM L-glutamine (Invitrogen, cat. 25030081), and 9.7 microM Y-27632 dihydrochloride (Tocris Bioscience, Bristol, United Kingdom, cat. 1254). The PDCs were cultured in complete DMEM/F12 media without 10 microM Y-27632 dihydrochloride for at least two passages prior to the screen. The established cell lines NCI-H1341 and […] were cultured in DMEM/F-12, HEPES (Invitrogen, cat. 11330032), 5% defined fetal bovine serum (HyClone Laboratories Inc., cat. SH30070.03), ITS premix universal culture supplement [insulin (5 microg/mL), transferrin (5 microg/mL), and selenious acid (5 ng/mL)] […]

[1] = second compound 0.1 µM, first compound 0.0316 µM
[2] = second compound 0.1 µM, first compound 0.1 µM
[3] = second compound 0.1 µM, first compound 0.316 µM
[4] = second compound 0.1 µM, first compound 1 µM
[5] = second compound 0.1 µM, first compound 3.16 µM
[6] = second compound 0.1 µM, first compound 10 µM
[7] = second compound 0.316 µM, first compound 0.0316 µM
[8] = second compound 0.316 µM, first compound 0.1 µM
[9] = second compound 0.316 µM, first compound 0.316 µM
[10] = second compound 0.316 µM, first compound 1 µM
[11] = second compound 0.316 µM, first compound 3.16 µM
[12] = second compound 0.316 µM, first compound 10 µM
[13] = second compound 1 µM, first compound 0.0316 µM
[14] = second compound 1 µM, first compound 0.1 µM
[15] = second compound 1 µM, first compound 0.316 µM
[16] = second compound 1 µM, first compound 1 µM
[17] = second compound 1 µM, first compound 3.16 µM
[18] = second compound 1 µM, first compound 10 µM
[19] = second compound 3.16 µM, first compound 0.0316 µM
[20] = second compound 3.16 µM, first compound 0.1 µM
[21] = second compound 3.16 µM, first compound 0.316 µM
[22] = second compound 3.16 µM, first compound 1 µM
[23] = second compound 3.16 µM, first compound 3.16 µM
[24] = second compound 3.16 µM, first compound 10 µM
[25] = second compound 10 µM, first compound 0.0316 µM
[26] = second compound 10 µM, first compound 0.1 µM
[27] = second compound 10 µM, first compound 0.316 µM
[28] = second compound 10 µM, first compound 1 µM
[29] = second compound 10 µM, first compound 3.16 µM
[30] = second compound 10 µM, first compound 10 µM
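Wherever viability, T/C is given: spheroids mix tumor cells with HUVEC endothelium and human MSC stroma; luminescence taken as viability surrogate after a week of drug exposure.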

Compound | IC50 (second compound 0.1 µM) [µM] | IC50 (second compound 0.316 µM) [µM] | IC50 (second compound 1 µM) [µM] | IC50 (second compound 3.16 µM) [µM] | IC50 (second compound 10 µM) [µM] | viability, T/C [1] [%] | viability, T/C [2] [%] | viability, T/C [3] [%] | viability, T/C [4] [%] | viability, T/C [5] [%] | viability, T/C [6] [%] | viability, T/C [7] [%] | viability, T/C [8] [%] | viability, T/C [9] [%] | viability, T/C [10] [%] | viability, T/C [11] [%] | viability, T/C [12] [%] | viability, T/C [13] [%] | viability, T/C [14] [%] | viability, T/C [15] [%] | further results
Nc1ccccc1NC(=O)c1ccc(CNC(=O)OCc2cccnc2)cc1 + CC(CO)NC(=O)c1cc(-c2ccc(Cl)cc2)nn(-c2cnn(C)c2)c1=O | 4.56 | 3.74 | 2.94 | 3.62 | 3.36 | 119 | 126 | 123 | 87.9 | 66.2 | 22.9 | 111 | 130 | 114 | 85.9 | 57.1 | 25.2 | 118 | 134 | 120 | viability, T/C [16]: 77.1%; viability, T/C [17]: 54.6%; viability, T/C [18]: 20%; viability, T/C [19]: 115%; viability, T/C [20]: 109%; viability, T/C [21]: 117%; viability, T/C [22]: 75.6%; viability, T/C [23]: 58.8%; viability, T/C [24]: 17.6%; viability, T/C [25]: 94.7%; viability, T/C [26]: 91%; viability, T/C [27]: 101%; viability, T/C [28]: 81.6%; viability, T/C [29]: 52.6%; viability, T/C [30]: 14.1%
O=C(C=Cc1cccc(S(=O)(=O)Nc2ccccc2)c1)NO + CC(CO)NC(=O)c1cc(-c2ccc(Cl)cc2)nn(-c2cnn(C)c2)c1=O | 4.62 | 4.89 | 3.6 | 5.85 | 4.59 | 108 | 107 | 122 | 93.2 | 58.3 | 35.5 | 114 | 135 | 131 | 91.2 | 62.6 | 35 | 131 | 126 | 120 | viability, T/C [16]: 92.9%; viability, T/C [17]: 53.2%; viability, T/C [18]: 26.5%; viability, T/C [19]: 117%; viability, T/C [20]: 101%; viability, T/C [21]: 114%; viability, T/C [22]: 98.1%; viability, T/C [23]: 67.3%; viability, T/C [24]: 35.1%; viability, T/C [25]: 94.1%; viability, T/C [26]: 90.6%; viability, T/C [27]: 82.8%; viability, T/C [28]: 86.2%; viability, T/C [29]: 61.4%; viability, T/C [30]: 25.1%
